Laboratory results as given in patent publication US8283474B2, “Azabicyclo (3.1.0) hexane derivatives useful as modulators of dopamine D3 receptors” (Glaxo Group Limited, priority 2004, dated 2012).

Target: T1, dopamine D3 receptor (Homo sapiens, UniProt P35462)
T1 construct: expressed in transfected cells; membrane preparation
Test: GTPγS scintillation proximity assay (GTPγS-SPA), antagonist format, CHO_D3 membranes
Type: biochemical
Conditions: difference in functional pKi at D3 versus the opposite enantiomer of the same Example
Method: Functional potency and intrinsic activity of compounds of this invention can be measured by the following GTPγS scintillation proximity assay (GTPγS-SPA). Cells used in the study are Chinese Hamster Ovary (CHO) Cells.
Cell membranes are prepared as follows. Cell pellets are resuspended in 10 volumes of 50 mM HEPES, 1 mM EDTA pH 7.4, using KOH. On the day the following proteases are added to the buffer just prior to giving the homogenisation buffer. 10^−6M Leupeptin(Sigma L2884)−5000×stock=5 mg/ml in buffer 25 ug/ml Bacitracin(Sigma B0125)−1000×stock=25 mg/ml in buffer 1 mM PMSF−1000×stock=17 mg/ml in 100% ethanol 2×10^−6M Pepstain A−1000×stock=2 mM in 100% DMSO
The cells are homogenised by 2×15 second bursts in a 1 litre Glass Waring blender in a class two biohazard cabinet. The resulting suspension is spun at 500 g for 20 mins (Beckman T21 centrifuge: 1550 rpm). The supernatant is withdrawn with a 25 ml pipette, aliquotted into pre-chilled centrifuge tubes and spun at 48,000 g to pellet membrane fragments (Beckman T1270: 23,000 rpm for 30 mins). The final 48,000 g pellet is resuspended in Homogenisation Buffer, (4× the volume of the original cell pellet). The 48,000 g pellet is resuspended by vortexing for 5 seconds and homogenized in a dounce homogenizer 10-15 stokes. The prep is distributed into appropriate sized aliquots, (200-1000 ul), in polypropylene tubes and store at −80° C. Protein content in the membrane preparations is evaluated with the Bradford protein assay.
The final top concentration of test drug is 3 uM in the assay and 11 points serial dilution curves 1:4 in 100% DMSO are carried out using a Biomek FX. The test drug at 1% total assay volume (TAV) is added to a solid, white, 384 well assay plate. 50% TAV of precoupled (for 90 mins at 4° C.) membranes, 5 μg/well, and Wheatgerm Agglutinin Polystyrene Scintillation Proximity Assay beads (RPNQ0260, Amersham), 0.25 mg/well, in 20 mM HEPES pH 7.4, 100 mM NaCl, 10 mM MgCl2, 60 μg/ml saponin and 30 μM GDP is added. The third addition was a 20% TAV addition of either buffer, (agonist format) or EC80 final assay concentration of agonist, Quinelorane, prepared in assay buffer (antagonist format). The assay was started by the addition of 29% TAV of GTPγ[^35S] 0.38 nM final (37 MBq/ml, 1160 Ci/mmol, Amersham). After all additions assay plates are spun down for 1 min at 1,000 rpm. Assay plates are counted on a Viewlux, 613/55 filter, for 5 min., between 2-6 hours after the final addition.
The effect of the test drug over the basal generates EC50 value by an iterative least squares curve fitting programme, expressed in the table as pEC50 (i.e. −log EC50). The ratio between the maximal effect of the test drug and the maximal effect of full agonist, Quinelorane, generates the Intrinsic Activity (IA) value (i.e. IA=1 full agonist, IA<1 partial agonist). fpKi values of test drug are calculated from the IC50 generated by “antagonist format” experiment, using Cheng & Prusoff equation: fKi=IC50/1+([A]/EC50) where: [A] is the concentration of the agonist […] in the assay and EC50 is the 5-HT EC50 value obtained in the same experiment. fpKi is defined as −log fKi.

T1 sequence (P35462 whole entry): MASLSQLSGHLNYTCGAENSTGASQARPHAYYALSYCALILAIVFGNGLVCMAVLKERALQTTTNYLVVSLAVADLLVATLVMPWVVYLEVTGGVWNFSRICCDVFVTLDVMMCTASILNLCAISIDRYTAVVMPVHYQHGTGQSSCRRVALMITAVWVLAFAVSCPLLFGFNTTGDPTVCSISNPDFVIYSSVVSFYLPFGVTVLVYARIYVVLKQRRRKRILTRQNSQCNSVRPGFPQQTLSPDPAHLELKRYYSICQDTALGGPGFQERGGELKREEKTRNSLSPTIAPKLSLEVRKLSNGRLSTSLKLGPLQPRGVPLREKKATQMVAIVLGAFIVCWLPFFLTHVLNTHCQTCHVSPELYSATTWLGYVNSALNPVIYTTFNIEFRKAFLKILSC

fpKi (D3) higher than the other Enantiomer [log-unit]	Structure (SMILES)
> 1	Cc1ncoc1-c1nnc(SCCCN2C[C@@H]3C[C@]3(c3ccc(C(F)(F)F)cc3F)C2)n1C.Cl (single isomer, unassigned) [Example 16 Enantiomer 2]
> 1	Cc1ccc2c(-c3nnc(SCCCN4C[C@@H]5C[C@]5(c5ccc(Br)cc5)C4)n3C)cccc2n1 (single isomer, unassigned) [Example 2 Enantiomer 2]
> 1	COc1cccc([C@]23C[C@H]2CN(CCCSc2nnc(-c4ocnc4C)n2C)C3)c1 (single isomer, unassigned) [Example 24 Enantiomer 1]
> 1	Cc1ncoc1-c1nnc(SCCCN2C[C@@H]3C[C@]3(c3cccc(C(F)(F)F)c3)C2)n1C (single isomer, unassigned) [Example 17 Enantiomer 1]
> 1	Cc1ccc2c(-c3nnc(SCCCN4CC5CC5(c5ccc(Cl)cc5)C4)n3C)cccc2n1 (single isomer, unassigned; enantiomer 1) [Example 29 Enantiomer 1]
> 0.9	Cc1ccc2c(-c3nnc(SCCCN4C[C@@H]5C[C@]5(c5ccc(C(C)(C)C)cc5)C4)n3C)cccc2n1 (single isomer, unassigned) [Example 5 Enantiomer 2]
> 0.6	Cc1ccc2c(-c3nnc(SCCCN4C[C@@H]5C[C@]5(c5ccc(Cl)c(Cl)c5)C4)n3C)cccc2n1 (single isomer, unassigned) [Example 4 Enantiomer 1]
> 1	CCC(=O)c1cc([C@]23C[C@H]2CN(CCCSc2nnc(-c4ocnc4C)n2C)C3)ccc1OC (single isomer, unassigned) [Example 71 Enantiomer 1]
> 1	COc1ccc([C@]23C[C@H]2CN(CCCSc2nnc(-c4cccc5nc(C)ccc45)n2C)C3)cc1 (single isomer, unassigned) [Example 1 Enantiomer 1]
> 1	Cc1ccc2c(-c3nnc(SCCCN4C[C@@H]5C[C@]5(c5ccccc5)C4)n3C)cccc2n1 (single isomer, unassigned) [Example 3 Enantiomer 2]
> 1	Cc1nc2cc([C@]34C[C@H]3CN(CCCSc3nnc(-c5ocnc5C)n3C)C4)ccc2s1 (single isomer, unassigned) [Example 72 Enantiomer 1]
> 1	Cc1ncoc1-c1nnc(SCCCN2C[C@@H]3C[C@]3(c3ccc(C(F)(F)F)cn3)C2)n1C (single isomer, unassigned) [Example 96 Enantiomer 2]
> 1	Cc1ncoc1-c1nnc(SCCCN2C[C@]3(C)C[C@@]3(c3cccc(Cl)c3)C2)n1C (single isomer, unassigned) [Example 22 Enantiomer 1]
> 1	Cc1ncoc1-c1nnc(SCCCN2C[C@@H]3C[C@]3(c3cc(C(F)(F)F)ccc3F)C2)n1C (single isomer, unassigned) [Example 36 Enantiomer 2]
> 1	Cc1ncoc1-c1nnc(SCCCN2C[C@@H]3C[C@]3(c3cccc(F)c3)C2)n1C (single isomer, unassigned) [Example 23 Enantiomer 1]
> 1	Cc1ncoc1-c1nnc(SCCCN2C[C@@H]3C[C@]3(c3ccc(OC(F)(F)F)cc3)C2)n1C (single isomer, unassigned) [Example 30 Enantiomer 1]
> 1	Cc1ncoc1-c1nnc(SCCCN2C[C@@H]3C[C@]3(c3ccc4c(cnn4C)c3)C2)n1C (single isomer, unassigned) [Example 74 Enantiomer 1]
> 1	COc1ccc([C@]23C[C@H]2CN(CCCSc2nnc(-c4ocnc4C)n2C)C3)cc1C(C)=O (single isomer, unassigned) [Example 19 Enantiomer 1]

Structure (SMILES)	fpKi (D3) higher than the other Enantiomer [log-unit]
Cc1ncoc1-c1nnc(SCCCN2C[C@@H]3C[C@]3(c3ccc(F)cc3)C2)n1C (single isomer, unassigned) [Example 21 Enantiomer 1]	> 1
Cc1ncoc1-c1nnc(SCCCN2C[C@@H]3C[C@]3(c3cc(F)cc(C(F)(F)F)c3)C2)n1C (single isomer, unassigned; enantiomer 1) [Example 110 Enantiomer 1]	> 1
Cc1ncoc1-c1nnc(SCCCN2C[C@@H]3C[C@]3(c3ccc(Br)cc3)C2)n1C (single isomer, unassigned) [Example 9 Enantiomer 1]	> 1
Cc1ncoc1-c1nnc(SCCCN2C[C@@H]3C[C@]3(c3cccc(C(F)(F)F)c3F)C2)n1C (single isomer, unassigned; enantiomer 2) [Example 111 Enantiomer 2]	> 1
Cc1ncoc1-c1nnc(SCCCN2C[C@@H]3C[C@]3(c3ccc(Cl)cc3)C2)n1C (single isomer, unassigned) [Example 20 Enantiomer 1]	> 1
